US20230330254A1 (Regeneron Pharmaceuticals, Inc., priority 2022, published 2023)
pEC50: −log10 of the molar value. Where a SMILES comes first, the peptide text is derived from it. [ ]: non-standard residue; d: D form. The star is where a group is joined. Bip(2'-Et,4'-O(CH2)4NH2) = CCc1cc(OCCCCN)ccc1-c1ccc(C[C@H](N)C(=O)O)cc1; Malonyl(2,2-Me2,histaminyl) = CC(C)(C(=O)NCCc1cnc[nH]1)C(=O)*; Nva(5-(3,5-Me2Ph)) = Cc1cc(C)cc(CCC[C@H](N)C(=O)O)c1; Ala(1H-tetrazol-5-yl) = N[C@@H](Cc1nnn[nH]1)C(=O)O; αMePhe(2-F) = C[C@](N)(Cc1ccccc1F)C(=O)O

What was measured:
[1] = Plasma stability of payloads and linker-payloads, monkey plasma; assay type: in vitro ADME; conditions: pooled plasma
Method: (§1) The plasma stability of payloads and linker payloads of the disclosure were measured. For the assay, pooled frozen plasma (human, mouse or monkey) was thawed in cold water or a 37° C. water bath prior to experiment. Plasma was centrifuged at 4000 rpm for 5 min if any clots were observed, they were subsequently removed. If required, the pH was adjusted to 7.4±0.1. For the preparation of compounds and positive controls, a 1 mM intermediate solution was prepared by diluting 10 μL of their stock solution with 90 μL DMSO; a 1 mM intermediate solution of the positive control (Propantheline) was prepared by diluting 10 μL of its stock solution with 90 μL ultrapure water. Subsequently, 100 μM dosing solution for each compound was prepared by diluting 20 μL of the intermediate solution (1 mM) with 180 μL 45% MeOH/H2O. 98 μL of plasma was spiked with 2 μL of dosing solution (100 μM) to achieve the final concentration of 2 μM in duplicate. Samples were then incubated at 37° C. in a water bath. […] At each time point, 400 μL of stop solution (200 ng/mL tolbutamide plus 200 ng/mL labetalol in 50% ACN/MeOH) was added to precipitate protein and mixed thoroughly. Sample plates were then centrifuged at 4,000 rpm for 10 min. An aliquot of supernatant (50 μL) was transferred from each well and mixed with 100 μL ultrapure water. The samples were then shaken at 800 rpm for approximately 10 min before submitting for LC-MS/MS analysis.

[2] = Plasma stability of payloads and linker-payloads, mouse plasma; assay type: in vitro ADME; conditions: mouse, pooled plasma
Method: as §1

[3] = tested on: Salmonella typhimurium TA98 and TA100; assay: Mini-Ames assay; assay type: cell-based
Method: The objective of this Mini-Ames study was to evaluate the test article LP11, for its ability to induce reverse mutations in the genome of strains of Salmonella typhimurium TA98 and TA100 in the presence and absence of metabolic activation (S9 mixture).
The Mini-Ames assay was conducted for the test article in the presence and absence of the S9 mixture, concurrently with the negative/solvent control (DMSO) using six wells and positive controls (2 μg/well TA98 alone, 0.2 μg/well TA100 alone or 0.4 μg/well TA98+TA100 in the presence of S9) using three wells. The tested dose levels for the test article, in the presence and absence of S9 mix, were 1000, 400, 160, 64, 25, 10, 4, and 1.5 μg per well, with each dose tested in triplicate. The study was conducted using fresh cultures of the bacterial strains and fresh test article formulations.

[4] = molecular target: T1, human glucagon-like peptide 2 receptor (GLP2R) (Homo sapiens, UniProt O95838); assay: CRE-luciferase reporter assay, HEK293/Myc-hGLP2R/Cre-Luc (Example 9); assay type: cell-based; conditions: Table 5C
T1 construct: full-length human GLP1R, cynomolgus GLP1R, human glucagon receptor (GCGR), human glucagon-like peptide 2 receptor (GLP2R); expressed in transfected cells; host or cells: HEK293/CRE-Luc
T1 sequence (O95838 1-553): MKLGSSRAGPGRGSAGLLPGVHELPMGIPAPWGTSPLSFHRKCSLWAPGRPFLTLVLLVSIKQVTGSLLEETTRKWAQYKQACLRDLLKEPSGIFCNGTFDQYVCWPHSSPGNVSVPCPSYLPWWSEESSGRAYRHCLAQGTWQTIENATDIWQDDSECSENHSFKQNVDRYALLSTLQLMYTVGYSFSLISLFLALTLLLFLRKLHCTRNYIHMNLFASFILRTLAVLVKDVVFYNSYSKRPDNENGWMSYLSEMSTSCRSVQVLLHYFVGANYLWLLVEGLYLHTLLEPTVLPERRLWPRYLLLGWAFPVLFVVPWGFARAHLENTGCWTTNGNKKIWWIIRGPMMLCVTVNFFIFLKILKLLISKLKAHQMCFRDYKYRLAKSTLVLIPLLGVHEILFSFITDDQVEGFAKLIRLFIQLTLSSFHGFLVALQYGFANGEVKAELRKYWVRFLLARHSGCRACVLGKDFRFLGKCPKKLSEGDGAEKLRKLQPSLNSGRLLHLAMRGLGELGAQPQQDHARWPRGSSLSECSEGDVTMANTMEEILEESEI
Method: (§2) To test the activity of GLP1R agonist payloads and GLP1R agonist linker-payloads (LPs) in vitro, a cell-based cAMP responsive luciferase reporter assay was developed.
(§3) Cells were incubated overnight at 37° C. in 5% CO2. […] Plates were incubated for 5.5 h at 37° C. in 5% CO2. For end-point measurement, 100 μL/well of One-Glo reagent (Promega, #E6051) was added and plates were kept at room temperature for 5-10 minutes. Luciferase activity was measured on Envision Multilabel Plate Reader (Perkin Elmer) in Luminescent mode. The relative light units (RLU) values were obtained and the results were analyzed using nonlinear regression with GraphPad Prism software (GraphPad).

[5] = molecular target: T2, human gastric inhibitory polypeptide receptor (GIPR) (Homo sapiens, UniProt P48546); assay: CRE-luciferase reporter assay, HEK293/Myc-hGIPR/Cre-Luc (Example 9); assay type: cell-based; design: Myc; expressed in transfected cells; conditions: Table 5C
T2 sequence (P48546 22-466): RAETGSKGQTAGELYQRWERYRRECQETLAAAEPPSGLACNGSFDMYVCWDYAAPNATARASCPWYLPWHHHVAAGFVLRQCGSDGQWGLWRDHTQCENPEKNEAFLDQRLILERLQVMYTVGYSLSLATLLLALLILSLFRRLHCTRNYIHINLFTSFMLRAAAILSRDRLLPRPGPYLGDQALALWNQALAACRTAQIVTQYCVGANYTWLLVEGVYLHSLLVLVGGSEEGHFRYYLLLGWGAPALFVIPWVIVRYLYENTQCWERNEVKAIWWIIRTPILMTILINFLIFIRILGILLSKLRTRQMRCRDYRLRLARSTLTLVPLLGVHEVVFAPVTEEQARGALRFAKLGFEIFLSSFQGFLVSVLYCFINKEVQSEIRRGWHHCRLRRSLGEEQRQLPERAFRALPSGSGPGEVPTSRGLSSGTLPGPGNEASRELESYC
Method: as §2, §3

[6] = molecular target: T1, human glucagon-like peptide 2 receptor (GLP2R); assay: Luciferase reporter assay, HEK293/CRE-Luc/hGLP2R (Example 17); assay type: cell-based; conditions: Table 28; CRE-dependent luciferase reporter activity
[7] = molecular target: T3, human glucagon receptor (GCGR) (Homo sapiens, UniProt P47871); assay: Luciferase reporter assay, HEK293/CRE-Luc/hGCGR (Example 17); assay type: cell-based; conditions: Table 28; CRE-dependent luciferase reporter activity
T3 construct: full-length human GLP1R, cynomolgus GLP1R, human glucagon receptor (GCGR); expressed in transfected cells; host or cells: HEK293/CRE-Luc

[8] = Plasma stability of payloads (t½)

T3 sequence (P47871 26-477): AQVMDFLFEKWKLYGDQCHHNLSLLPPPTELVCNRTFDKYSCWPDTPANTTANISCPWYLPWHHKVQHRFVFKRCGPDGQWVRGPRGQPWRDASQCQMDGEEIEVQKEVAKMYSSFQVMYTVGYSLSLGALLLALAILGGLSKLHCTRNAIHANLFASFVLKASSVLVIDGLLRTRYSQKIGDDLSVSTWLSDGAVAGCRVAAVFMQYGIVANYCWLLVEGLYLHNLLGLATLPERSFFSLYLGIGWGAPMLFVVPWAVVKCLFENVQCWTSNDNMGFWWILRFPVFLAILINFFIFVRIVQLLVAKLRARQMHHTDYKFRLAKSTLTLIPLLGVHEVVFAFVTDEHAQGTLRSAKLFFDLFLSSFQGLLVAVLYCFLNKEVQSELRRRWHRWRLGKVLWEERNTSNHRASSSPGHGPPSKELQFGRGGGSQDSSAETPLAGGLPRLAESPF

## CCc1cc(OCCCCn2cc(COCCOCCOCCOCCOCCOCCOCCOCCN)nn2)ccc1-c1ccc(C[C@H](NC(=O)[C@H](CC(=O)O)NC(=O)[C@H](CO)NC(=O)[C@@H](NC(=O)C(C)(Cc2ccccc2F)NC(=O)[C@@H](NC(=O)CNC(=O)[C@H](Cc2nn[nH]n2)NC(=O)C(C)(C)C(=O)NCCc2cnc[nH]2)[C@@H](C)O)[C@@H](C)O)C(=O)N[C@@H](CCCc2cc(C)cc(C)c2)C(N)=O)cc1 (stereo partly shown) [LP11, NH2-PEG8-triazole-P8]
[1]; pH 7.4, Monkey, assay time 3 days, Table 5B, read-out: plasma stability T½
  half-life at 2 µM: > 49.4 h
[1]; pH 7.4, Table 5A, monkey plasma, tested time C (3 days), read-out: plasma stability T½ (hr), monkey
  half-life at 2 µM: > 49.4 h
[1]; pH 7.4, Table 5C, read-out: Plasma Stability Monkey T1/2
  half-life at 2 µM: > 48 h
[2]; pH 7.4, Mouse, assay time 3 days, Table 5B, read-out: plasma stability T½
  half-life at 2 µM: > 144 h
[2]; pH 7.4, Table 5A, mouse plasma, tested time C (3 days), read-out: plasma stability T½ (hr), mouse
  half-life at 2 µM: > 173 h
[2]; pH 7.4, Table 5C, read-out: Plasma Stability Mouse T½
  half-life at 2 µM: > 168 h
[3]
  fold increase in mean number of revertant colonies vs negative/solvent control: ≤ 2.0 fold
[3]; TA98 and TA100, with and without S9
  mutagenicity (Mini-Ames conclusion): negative for mutagenicity
[3]; Table 5C
  Ames (TA98 and TA100) in the presence and absence of S9: Negative for mutagenicity
[3]; any dose level (1.5-1000 μg per well), with or without S9 mix
  cytotoxicity in Mini-Ames: no obvious cytotoxicity
[3]; any dose level, with or without S9 mix
  precipitates in Mini-Ames (naked eye after incubation): No obvious precipitates
[4]
  GLP2R EC50 (nM): Completely inactive
[5]
  GIPR EC50 (nM): Completely inactive

## CCc1cc(OCCCCn2cc(COCCOCCOCCOCCOCCOCCOCCOCCN)nn2)ccc1-c1ccc(C[C@H](NC(=O)[C@H](CC(=O)O)NC(=O)[C@H](CO)NC(=O)[C@@H](NC(=O)[C@](C)(Cc2ccccc2F)NC(=O)[C@@H](NC(=O)CNC(=O)[C@H](Cc2nn[nH]n2)NC(=O)C(C)(C)C(=O)NCCc2cnc[nH]2)[C@@H](C)O)[C@@H](C)O)C(=O)N[C@@H](CCCc2cc(C)cc(C)c2)C(N)=O)cc1 [M3190]
[6]
  pEC50: < 6.70
[7]
  pEC50: < 6.70

## CCc1cc(OCCCCN)ccc1-c1ccc(C[C@H](NC(=O)[C@H](CC(=O)O)NC(=O)[C@H](CO)NC(=O)[C@@H](NC(=O)[C@](C)(Cc2ccccc2F)NC(=O)[C@@H](NC(=O)CNC(=O)[C@H](Cc2nn[nH]n2)NC(=O)C(C)(C)C(=O)NCCc2cnc[nH]2)[C@@H](C)O)[C@@H](C)O)C(=O)N[C@@H](CCCc2cc(C)cc(C)c2)C(N)=O)cc1 [P9, (8S,14S,17S,20S,23S,26S)-8-((2H-tetrazol-5-yl)methyl)-26-(((S)-1-(((S)-1-amino-5-(3,5-dimethylphenyl)-1-oxopentan-2-yl)amino)-3-(4′-(4-aminobutoxy)-2′-ethyl-[1,1′-biphenyl]-4-yl)-1-oxopropan-2-yl)carbamoyl)-17-(2-fluorobenzyl)-14,20-bis((R)-1-hydroxyethyl)-23-(hydroxymethyl)-1-(1H-imidazol-5-yl)-5,5,17-trimethyl-4,6,9,12,15,18,21,24-octaoxo-3,7,10,13,16,19,22,25-octaazaoctacosan-28-oic acid] ({Malonyl(2,2-Me2,histaminyl)}-[Ala(1H-tetrazol-5-yl)]GT[αMePhe(2-F)]TSD[Bip(2'-Et,4'-O(CH2)4NH2)][Nva(5-(3,5-Me2Ph))]-NH2)
[8]
  Plasma stability t½: >57.8 h
